Values quoted from earlier work in US9617279B1, “Imidazooxadiazole compounds” (BRISTOL-MYERS SQUIBB COMPANY, priority 2014, dated 2017).

Assays:
[1] = target: T1, protease-activated receptor type 4 (PAR4) (Homo sapiens, UniProt Q96RI0); conditions: abstract of Lee et al. 2001
T1 sequence (Q96RI0 18-385): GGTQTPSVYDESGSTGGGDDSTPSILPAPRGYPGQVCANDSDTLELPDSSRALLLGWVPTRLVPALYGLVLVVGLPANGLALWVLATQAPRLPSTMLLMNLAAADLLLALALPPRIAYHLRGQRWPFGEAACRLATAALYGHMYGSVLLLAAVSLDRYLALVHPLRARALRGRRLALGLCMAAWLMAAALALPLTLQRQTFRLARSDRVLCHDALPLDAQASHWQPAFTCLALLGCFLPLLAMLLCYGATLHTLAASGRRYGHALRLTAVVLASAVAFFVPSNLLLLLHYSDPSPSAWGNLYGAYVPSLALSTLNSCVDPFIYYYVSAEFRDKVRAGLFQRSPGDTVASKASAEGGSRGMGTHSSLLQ

PAR1 = target: T2, PAR1 (Homo sapiens, UniProt P25116); conditions: ACS patients, phase III
T2 sequence (P25116 22-425): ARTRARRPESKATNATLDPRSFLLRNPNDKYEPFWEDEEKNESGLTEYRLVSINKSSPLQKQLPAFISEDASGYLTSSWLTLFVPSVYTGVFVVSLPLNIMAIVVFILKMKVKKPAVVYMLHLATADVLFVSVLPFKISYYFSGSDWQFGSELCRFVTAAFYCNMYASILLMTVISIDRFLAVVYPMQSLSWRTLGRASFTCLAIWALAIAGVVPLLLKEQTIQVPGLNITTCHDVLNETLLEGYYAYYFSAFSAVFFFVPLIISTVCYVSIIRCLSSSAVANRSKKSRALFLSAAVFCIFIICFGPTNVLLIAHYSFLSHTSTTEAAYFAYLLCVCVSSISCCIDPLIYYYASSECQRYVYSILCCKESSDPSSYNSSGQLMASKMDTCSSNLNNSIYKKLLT

SMILES: CCOC(=O)c1ccc(-c2nn(Cc3ccccc3)c3ccccc23)cc1 [ethyl 4-(1-benzyl-1H-indazol-3-yl)benzoate]
- inhibition of PAR4-dependent platelet activation [1]: selective and potent inhibitor

SMILES: CCOC(=O)N[C@@H]1CC[C@@H]2[C@@H](C1)C[C@H]1C(=O)O[C@H](C)[C@H]1[C@H]2/C=C/c1ccc(-c2cccc(F)c2)cn1 [vorapaxar]
- cardiovascular events (PAR1): did not significantly reduce
- risk of major bleeding (PAR1): significantly increased
